# US10793580B2, “Substituted pyrazoloazepin-8-ones and their use as phosphodiesterase inhibitors” (LEO Pharma A/S, priority 2016, dated 2020)
# Where two headings read alike, the source gives them in different places.
# Target: human PDE4D catalytic domain (Homo sapiens (Human), UniProt Q08499)
# Assay: PDE4 Assay (TR-FRET, FAM-cAMP cleavage)
# Assay type: biochemical
# Details: read-out: PDE4 IC50 range
# Procedure: The human PDE4D catalytic domain (UniProt no. Q08499 [S380-L740]) was incubated with a mixture of non-labelled cAMP (cyclic adenosine monophosphate) and fluorescein amidite (FAM) conjugated cAMP and titrated test or reference Compound. Following brief incubation the enzymatic reaction was stopped by addition of binding buffer containing nanoparticles with immobilized trivalent metal ions capable of binding 1) AMP phospho groups and 2) terbium (Tb) donor fluorophores. Subsequent excitation of the Tb donor triggers time-resolved FRET to adjacent FAM acceptor molecules resulting in light emission. In the presence of a PDE4 inhibitor, AMP generation was reduced resulting in a lower fluorescence signal. The cAMP phosphodiester is not bound by the detection system.
# The results were calculated as the molar concentrations resulting in 50% inhibition of the substrate cleavage compared to controls samples, and are expressed as a range of IC50 (nM).
# [1] = human PDE4D catalytic domain (UniProt Q08499 [S380-L740]), 50% inhibition of substrate cleavage
# Sequence of human PDE4D catalytic domain (Q08499 380-740): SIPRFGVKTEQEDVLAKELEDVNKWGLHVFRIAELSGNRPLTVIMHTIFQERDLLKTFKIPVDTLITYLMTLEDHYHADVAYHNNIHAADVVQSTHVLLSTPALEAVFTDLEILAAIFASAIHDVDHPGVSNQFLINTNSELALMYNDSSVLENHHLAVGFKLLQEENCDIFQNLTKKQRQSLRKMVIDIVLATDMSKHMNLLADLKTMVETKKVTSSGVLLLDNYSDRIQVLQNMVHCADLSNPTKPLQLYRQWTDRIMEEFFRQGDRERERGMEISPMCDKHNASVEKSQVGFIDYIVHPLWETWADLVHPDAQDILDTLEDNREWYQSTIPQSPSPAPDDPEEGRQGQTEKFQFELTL
Structure (SMILES),IC50 [1] [nM],further results
"CCn1nc(CC(C)(C)COC(=O)c2cccc(C(=O)N3CCN(C(C)=O)CC3)c2)c2c1C(=O)NCC1(CCOCC1)C2 [Example 234, [3-(1-ethyl-8-oxo-spiro[6,7-dihydro-4H-pyrazolo[3,4-c]azepine-5,4′-tetrahydropyran]-3-yl)-2,2-dimethyl-propyl] 3-(4-acetylpiperazine-1-carbonyl)benzoate]",< 100,
"CCn1nc(CCCOC(=O)c2cc(F)ccc2C(F)(F)F)c2c1C(=O)NCC1(CCOCC1)C2 [Example 74, 3-(1-ethyl-8-oxo-spiro[6,7-dihydro-4H-pyrazolo[3,4-c]azepine-5,4′-tetrahydro-pyran]-3-yl)propyl 5-fluoro-2-(trifluoromethyl)benzoate]",< 100,
"CCn1nc(C[C@@H](C)COC(=O)c2cc(C)n(C)n2)c2c1C(=O)NCC1(CCOCC1)C2 [Example 289, [(2R)-3-(1-ethyl-8-oxo-spiro[6,7-dihydro-4H-pyrazolo[3,4-c]azepine-5,4′-tetrahydropyran]-3-yl)-2-methyl-propyl] 1,5-dimethylpyrazole-3-carboxylate]",,"IC50 (Table 16, Examples 277-296): < 100 nM"
"CCn1nc(CCCOC(=O)c2ccc(C(F)(F)F)c(F)c2)c2c1C(=O)NCC1(CCOCC1)C2 [Example 75, 3-(1-ethyl-8-oxo-spiro[6,7-dihydro-4H-pyrazolo[3,4-c]azepine-5,4′-tetrahydro-pyran]-3-yl)propyl 3-fluoro-4-(trifluoromethyl)benzoate]",< 100,
"CCn1nc(C[C@@H](C)COC(=O)[C@H]2C[C@@H](O)C2)c2c1C(=O)NCC1(CCOCC1)C2 [Example 138, [(2R)-3-(1-ethyl-8-oxo-spiro[6,7-dihydro-4H-pyrazolo[3,4-c]azepine-5,4′-tetrahydropyran]-3-yl)-2-methyl-propyl] 3-hydroxy-cyclobutanecarboxylate]",< 100,
"CCn1nc(CCCOC(=O)c2cc(C#N)ccc2F)c2c1C(=O)NCC1(CCOCC1)C2 [Example 31, 3-(1-ethyl-8-oxo-spiro[6,7-dihydro-4H-pyrazolo[3,4-c]azepine-5,4′-tetrahydropyran]-3-yl)propyl 5-cyano-2-fluoro-benzoate]",< 100,
"CCn1nc(CCCOC(=O)c2cccc(F)c2)c2c1C(=O)NCC1(CCOCC1)C2 [Example 9, 3-(1-ethyl-8-oxo-spiro[6,7-dihydro-4H-pyrazolo[3,4-c]azepine-5,4′-tetrahydropyran]-3-yl)propyl 3-fluorobenzoate]",< 100,
"CCn1nc(CCCOC(=O)c2ccc(C(F)(F)F)cc2Cl)c2c1C(=O)NCC1(CCOCC1)C2 [Example 88, 3-(1-ethyl-8-oxo-spiro[6,7-dihydro-4H-pyrazolo[3,4-c]azepine-5,4′-tetrahydro-pyran]-3-yl)propyl 2-chloro-4-(trifluoromethyl)benzoate]",< 100,
"CCn1nc(CCCOC(=O)c2cc(Cl)ccc2OC)c2c1C(=O)NCC1(CCOCC1)C2 [Example 60, 3-(1-ethyl-8-oxo-spiro[6,7-dihydro-4H-pyrazolo[3,4-c]azepine-5,4′-tetrahydropyran]-3-yl)propyl 5-chloro-2-methoxy-benzoate]",< 100,
"CCn1nc(CC(C)(C)COC(=O)c2cnsc2)c2c1C(=O)NCC1(CCOCC1)C2 [Example 304, [3-(1-ethyl-8-oxo-spiro[6,7-dihydro-4H-pyrazolo[3,4-c]azepine-5,4′-tetrahydro-pyran]-3-yl)-2,2-dimethyl-propyl] isothiazole-4-carboxylate]",,"IC50 (Table 17, Examples 297-316): < 100 nM"
"CCn1nc(CC(C)(C)COC(=O)c2cc(C)n(C)n2)c2c1C(=O)NCC1(CCOCC1)C2 [Example 309, [3-(1-ethyl-8-oxo-spiro[6,7-dihydro-4H-pyrazolo[3,4-c]azepine-5,4′-tetrahydro-pyran]-3-yl)-2,2-dimethyl-propyl] 1,5-dimethylpyrazole-3-carboxylate]",,"IC50 (Table 17, Examples 297-316): < 100 nM"
"CCn1nc(CC(C)(C)COC(=O)c2ccc(S(=O)(=O)NC)cc2)c2c1C(=O)NCC1(CCOCC1)C2 [Example 205, [3-(1-ethyl-8-oxo-spiro[6,7-dihydro-4H-pyrazolo[3,4-c]azepine-5,4′-tetrahydropyran]-3-yl)-2,2-dimethyl-propyl] 4-(methylsulfamoyl)benzoate]",< 100,
"CCn1nc(CCCOC(=O)c2cnc(C)nc2)c2c1C(=O)NCC1(CCOCC1)C2 [Example 247, 3-(1-ethyl-8-oxo-spiro[6,7-dihydro-4H-pyrazolo[3,4-c]azepine-5,4′-tetrahydropyran]-3-yl)propyl 2-methylpyrimidine-5-carboxylate]",< 100,
"CCn1nc(CCCCOC(=O)c2ccc(C(C)=O)cc2)c2c1C(=O)NCC1(CCOCC1)C2 [Example 126, 4-(1-ethyl-8-oxo-spiro[6,7-dihydro-4H-pyrazolo[3,4-c]azepine-5,4′-tetrahydropyran]-3-yl)butyl 4-acetylbenzoate]",< 100,
"CCn1nc(CCCOC(=O)c2ccc(C(=O)N3CCOCC3)cc2)c2c1C(=O)NCC1(CCOCC1)C2 [Example 109, 3-(1-ethyl-8-oxo-spiro[6,7-dihydro-4H-pyrazolo[3,4-c]azepine-5,4′-tetrahydropyran]-3-yl)propyl 4-(morpholine-4-carbonyl)benzoate]",< 100,
"CCn1nc(CCCOC(=O)c2cccc(S(=O)(=O)NC)c2)c2c1C(=O)NCC1(CCOCC1)C2 [Example 78, 3-(1-ethyl-8-oxo-spiro[6,7-dihydro-4H-pyrazolo[3,4-c]azepine-5,4′-tetrahydro-pyran]-3-yl)propyl 3-(methylsulfamoyl)benzoate]",< 100,
"CCn1nc(CCCOC(=O)C2CCN(C(C)=O)CC2)c2c1C(=O)NCC1(CCOCC1)C2 [Example 261, 3-(1-ethyl-8-oxo-spiro[6,7-dihydro-4H-pyrazolo[3,4-c]azepine-5,4′-tetrahydropyran]-3-yl)propyl 1-acetylpiperidine-4-carboxylate]",< 100,
"CCn1nc(CCCCOC(=O)C2CCOC2)c2c1C(=O)NCC1(CCOCC1)C2 (centres unmarked) [Example 265, 4-(1-ethyl-8-oxo-spiro[6,7-dihydro-4H-pyrazolo[3,4-c]azepine-5,4′-tetrahydropyran]-3-yl)butyl tetrahydrofuran-3-carboxylate]",< 100,
"CCn1nc(C[C@@H](C)COC(=O)c2cccc(C(=O)N3CCCC3)c2)c2c1C(=O)NCC1(CCOCC1)C2 [Example 181, [(2R)-3-(1-ethyl-8-oxo-spiro[6,7-dihydro-4H-pyrazolo[3,4-c]azepine-5,4′-tetrahydropyran]-3-yl)-2-methyl-propyl] 3-(pyrrolidine-1-carbonyl)benzoate]",< 100,
"CCn1nc(CCCOC(=O)c2cccc(C(=O)N3CCOCC3)c2)c2c1C(=O)NCC1(CCOCC1)C2 [Example 118, 3-(1-ethyl-8-oxo-spiro[6,7-dihydro-4H-pyrazolo[3,4-c]azepine-5,4′-tetrahydropyran]-3-yl)propyl 3-(morpholine-4-carbonyl)benzoate]",< 100,
"CCn1nc(CCCOC(=O)c2cscn2)c2c1C(=O)NCC1(CCOCC1)C2 [Example 244, 3-(1-ethyl-8-oxo-spiro[6,7-dihydro-4H-pyrazolo[3,4-c]azepine-5,4′-tetrahydropyran]-3-yl)propyl thiazole-4-carboxylate]",< 100,
"CCn1nc(CCCOC(=O)c2cccc(C#N)c2)c2c1C(=O)NCC1(CCOCC1)C2 [Example 11, 3-(1-ethyl-8-oxo-spiro[6,7-dihydro-4H-pyrazolo[3,4-c]azepine-5,4′-tetrahydropyran]-3-yl) propyl 3-cyanobenzoate]",< 100,
"CCn1nc(CC(C)(C)COC(=O)c2ccn(C)n2)c2c1C(=O)NCC1(CCOCC1)C2 [Example 298, [3-(1-ethyl-8-oxo-spiro[6,7-dihydro-4H-pyrazolo[3,4-c]azepine-5,4′-tetrahydro-pyran]-3-yl)-2,2-dimethyl-propyl] 1-methylpyrazole-3-carboxylate]",,"IC50 (Table 17, Examples 297-316): < 100 nM"
"CCn1nc(CCCOC(=O)c2cocn2)c2c1C(=O)NCC1(CCOCC1)C2 [Example 235, 3-(1-ethyl-8-oxo-spiro[6,7-dihydro-4H-pyrazolo[3,4-c]azepine-5,4′-tetrahydro-pyran]-3-yl)propyl oxazole-4-carboxylate]",< 100,
"CCn1nc(CCCOC(=O)c2ccc(OC)c(F)c2)c2c1C(=O)NCC1(CCOCC1)C2 [Example 35, 3-(1-ethyl-8-oxo-spiro[6,7-dihydro-4H-pyrazolo[3,4-c]azepine-5,4′-tetrahydropyran]-3-yl)propyl 3-fluoro-4-methoxy-benzoate]",< 100,
"CCn1nc(CCCOC(=O)c2cc(C(F)(F)F)ccc2F)c2c1C(=O)NCC1(CCOCC1)C2 [Example 73, 3-(1-ethyl-8-oxo-spiro[6,7-dihydro-4H-pyrazolo[3,4-c]azepine-5,4′-tetrahydro-pyran]-3-yl)propyl 2-fluoro-5-(trifluoromethyl)benzoate]",< 100,
"CCn1nc(CCCOC(=O)c2ccc(OC)c(C)c2)c2c1C(=O)NCC1(CCOCC1)C2 [Example 33, 3-(1-ethyl-8-oxo-spiro[6,7-dihydro-4H-pyrazolo[3,4-c]azepine-5,4′-tetrahydropyran]-3-yl)propyl 4-methoxy-3-methyl-benzoate]",< 100,
"CCn1nc(CCCOC(=O)c2cc(Cl)ccc2C)c2c1C(=O)NCC1(CCOCC1)C2 [Example 44, 3-(1-ethyl-8-oxo-spiro[6,7-dihydro-4H-pyrazolo[3,4-c]azepine-5,4′-tetrahydropyran]-3-yl)propyl 5-chloro-2-methyl-benzoate]",< 100,
"CCn1nc(CCCOC(=O)c2ccc(C(C)=O)cc2)c2c1C(=O)NCC1(CCOCC1)C2 [Example 27, 3-(1-ethyl-8-oxo-spiro[6,7-dihydro-4H-pyrazolo[3,4-c]azepine-5,4′-tetrahydropyran]-3-yl)propyl 4-acetylbenzoate]",< 100,
